These results are taken from article PMC8713287, “Synthesis and Cytotoxic Activity of Lepidilines A–D: Comparison with Some 4,5-Diphenyl Analogues and Related Imidazole-2-thiones” (Journal of Natural Products, 2021).

One may read the IC50 as the midpoint of a concentration-inhibition curve. A word on the melting point: it is the temperature, or range, at which the solid turns liquid.

Counter-ions that a name gives are not always drawn.

The subject of data set [1] is breast cancer adenocarcinoma MCF-7. Description: MTT cytotoxicity assay, MCF-7. Conditions: mean ± SEM. The format is cell-based, human. The protocol:
(§1) Potential biological activity of all four lepidilines A–D (1a–1d), as well as their 4,5-diphenyl analogues 6a[PF6], 6c[PF6], and 6d[PF6] (as hexafluorophosphate salts) and a series of imidazole-2-thiones 7 and 8 obtained therefrom, was evaluated in vitro against two human cancer cell lines: promyelocytic leukemia HL-60 and breast cancer adenocarcinoma MCF-7. Selected analogues were also tested against human umbilical vein endothelial cells (HUVECs) using the MTT cytotoxicity assay. Concentration–response analysis was performed to determine drug concentrations required to inhibit the growth of cells by 50% (IC50) after 48 h of incubation.
(§2) Human promyelocytic leukemia (HL-60) and human breast cancer adenocarcinoma (MCF-7) cell lines were obtained from the European Collection of Cell Cultures, while HUVECs were purchased from the American Type Culture Collection. HL-60 cells were cultured in RPMI 1640 plus GlutaMax I medium (Gibco/Life Technologies, Carlsbad, CA, USA). MCF-7 cells were maintained in minimum essential medium Eagle (Sigma-Aldrich, St. Louis, MO, USA) supplemented with 2 mM glutamine and Men nonessential amino acid solution (Sigma-Aldrich). Both media were supplemented with 10% heat-inactivated fetal bovine serum (Biological Industries, Beit-Haemek, Israel) and antibiotics (100 U/mL penicillin and 100 μg/mL streptomycin) (Sigma-Aldrich). HUVEC cells were grown in EGM-2 endothelial medium BulletKit (Lonza, Basel, Switzerland). Cells were maintained at 37 °C in a 5% CO2 atmosphere and were grown until 80% confluent.
(§3) The tested compounds were dissolved in sterile dimethyl sulfoxide (DMSO) and further diluted with culture medium. The final concentration of DMSO in cell cultures was less than 0.1% v/v. Controls without and with 0.1% DMSO were performed in each experiment.
(§4) The MTT assay was performed according to the known procedure.[30] The cells were incubated with the analogues for 48 h. The absorbance of the blue formazan product was measured at 560 nm using a FlexStation 3 multi-mode microplate reader (Molecular Devices, LLC, CA, USA) and compared with control (untreated cells). All experiments were performed in triplicate.
A general note: Tetrazolium dyes change colour on reduction, which living cells bring about.

In data set [2] the test system is promyelocytic leukemia HL-60. Kind of data set: MTT cytotoxicity assay, HL-60. The format is cell-based, human. Particulars: for IC50: MTT, 48 h incubation, mean ± SEM; for HUVEC/HL-60 IC50 ratio: normal HUVEC vs HL-60. As to the method:
as §1, §2, §3, §4

The subject of data set [3] is human umbilical vein endothelial cells (HUVECs). Description: MTT cytotoxicity assay, HUVEC. The format is cell-based. Conditions: 48 h incubation, normal cells, mean ± SEM. As to the method: as §1, §2, §3, §4
The test system of data set [4] is pancreatic adenocarcinoma PACA2. The arrangement: method as in PMID 12932133. Conditions: cited from earlier work.
The subject of a further data set is breast carcinoma MDA-231. On the set-up: method as in PMID 12932133. Conditions: cited from earlier work.
Data set [5] has as its system eight human cancer cell lines. On the set-up: method as in PMID 12932133. Conditions: inactive against all those cell lines; cited from earlier work.
[6] abbreviates: Homo sapiens, MCF7, 48 h incubation.

Take `c1ccc(Cn2c[n+](Cc3ccccc3)c(-c3ccccc3)c2-c2ccccc2)cc1` [6a[PF6], 1,3-Dibenzyl-4,5-diphenylimidazolium hexafluorophosphate]: the IC50 in data set [1] (setting [6]) was 8.2 ± 0.2 µM; in data set [2] (Homo sapiens, HL-60, 48 h) it was 1.2 ± 0.1 µM.
For `COc1cccc(Cn2c[n+](Cc3ccccc3)c(C)c2C)c1.[Cl-]` [1c, 1-Benzyl-3-(3-methoxybenzyl)-4,5-dimethylimidazolium chloride], the melting point is 94 to 96 °C. The same compound showed an IC50 in data set [3] above 100 µM. Also, the IC50 in data set [1] (setting [6]) turned out to be 75 ± 5 µM. In data set [2] (Homo sapiens, HL-60, 48 h), this compound displayed an IC50 of 27.7 ± 2.5 µM.
In the case of `COc1cccc(C[n+]2c(-c3ccccc3)c(-c3ccccc3)n(Cc3ccccc3)c2C)c1` [6d[PF6], 1-Benzyl-3-(3-methoxybenzyl)-2-methyl-4,5-diphenylimidazolium hexafluorophosphate], the IC50 in data set [1] (setting [6]) stood at 6.5 ± 0.2 µM; in data set [2] (Homo sapiens, HL-60, 48 h) it was 1.2 ± 0.1 µM.
For the compound `c1c[n+](OC23CC4CC(CC(C4)C2)C3)cn1OC12CC3CC(CC(C3)C1)C2` [compound 10], the IC50 in data set [3] worked out at 9.1 ± 0.3 µM; in data set [1] (setting [6]) it was 4.5 ± 0.1 µM; in data set [2] (Homo sapiens, HL-60, 48 h), 0.3 ± 0.1 µM.
For `COc1cccc(C[n+]2cn(Cc3ccccc3)c(C)c2C)c1` (as salt: phosphate) [1c[PF6], 1-Benzyl-3-(3-methoxybenzyl)-4,5-dimethylimidazolium hexafluorophosphate], the melting point was in the range of 102 to 104 °C.
In turn, `S=c1n(Cc2ccccc2)c(-c2ccccc2)c(-c2ccccc2)n1Cc1ccccc1` [8a, 1,3-Dibenzyl-4,5-diphenylimidazole-2-thione] registered a melting point of 180 to 182 °C. The compound also yielded an IC50 in data set [1] (setting [6]) above 100 µM. Further, half-maximal inhibition in data set [2] (Homo sapiens, HL-60, 48 h) (IC50) required 8.1 ± 0.3 µM.
Take `COc1cccc2c1C(=O)c1c(O)c3c(c(O)c1C2=O)C[C@@](O)(C(=O)CO)C[C@@H]3O[C@H]1C[C@H](N)[C@H](O)[C@H](C)O1` [DXR, doxorubicin, reference compound]: the IC50 in data set [3] is 1.4 ± 0.1 µM; in data set [1] (setting [6]), 0.9 ± 0.1 µM; in data set [2] (Homo sapiens, HL-60, 48 h), 0.12 ± 0.01 µM. The “fold more cytotoxic than lepidiline D” value in data set [2] (DXR vs lepidiline D, HL-60) is on record as 10 fold. Also, in data set [2], the “HUVEC/HL-60 IC50 ratio” value is on record as “about 10”.
Take `Cc1c(C)[n+](Cc2ccccc2)cn1Cc1ccccc1` [1a[PF6]] [1,3-Dibenzyl-4,5-dimethylimidazolium hexafluorophosphate]: the IC50 in data set [1] (48 h incubation) was above 100 µM; in data set [2], 32 ± 2 µM.
On to `COc1cccc(C[n+]2cn(Cc3ccccc3)c(-c3ccccc3)c2-c2ccccc2)c1` (as salt: phosphate) [6c[PF6], 1-Benzyl-3-(3-methoxybenzyl)-4,5-diphenylimidazolium hexafluorophosphate], for which the melting point fell in the range of 78 to 81 °C.
On the same count and under the same terms, for `COc1cccc(C[n+]2c(-c3ccccc3)c(-c3ccccc3)n(Cc3ccccc3)c2C)c1` (as salt: phosphate) [6d[PF6], 1-Benzyl-3-(3-methoxybenzyl)-2-methyl-4,5-diphenylimidazolium hexafluorophosphate] the value was 175 to 177 °C.
`Cc1c(C)[n+](Cc2ccccc2)c(C)n1Cc1ccccc1.[Cl-]` [1b, 1,3-Dibenzyl-2,4,5-trimethylimidazolium chloride] showed a melting point of 228 to 229 °C. In data set [4], the “IC50 PACA2” value was 1.38 µg/mL. The IC50 in data set [4] (converted from μg/mL) is 4.2 µM. Besides, the IC50 in data set [3] is above 100 µM. This compound also gave a 50% inhibitory concentration (IC50) in data set [1] (setting [6]) above 100 µM. Also, in data set [2] (Homo sapiens, HL-60, 48 h), the IC50 was 3.8 ± 0.2 µM. In addition, in the data set with breast carcinoma MDA-231, the “IC50 MDA-231” value was 1.66 µg/mL. Also, the IC50 in the data set with breast carcinoma MDA-231 (converted from μg/mL) was 5.1 µM.
In turn, `COc1cccc(C[n+]2cn(Cc3ccccc3)c(-c3ccccc3)c2-c2ccccc2)c1.[Br-]` [6c[Br], 1-Benzyl-3-(3-methoxybenzyl)-4,5-diphenylimidazolium bromide] showed a melting point of 149 to 151 °C.
`c1ccc(Cn2c[n+](Cc3ccccc3)c(-c3ccccc3)c2-c2ccccc2)cc1` (as salt: phosphate) [6a[PF6], 1,3-Dibenzyl-4,5-diphenylimidazolium hexafluorophosphate] returned a melting point of 129 to 131 °C.
As to `c1c[n+](C23CC4CC(CC(C4)C2)C3)cn1C12CC3CC(CC(C3)C1)C2` [compound 9, 1,3-diadamantylimidazolium bromide], the IC50 turned out to be 51.5 ± 1.5 µM in data set [1] (setting [6]) and 1.8 ± 0.1 µM in data set [2] (Homo sapiens, HL-60, 48 h).
Regarding `COc1cccc(Cn2c(C)c(C)[n+](Cc3ccccc3)c2C)c1.[Cl-]` [1d, 1-Benzyl-3-(3-methoxybenzyl)-2,4,5-trimethylimidazolium chloride], the melting point is 214 to 216 °C. Further, the IC50 in data set [3] is above 100 µM. Besides, the IC50 in data set [1] (setting [6]) is above 100 µM. The same compound yielded an IC50 in data set [2] (Homo sapiens, HL-60, 48 h) of 1.1 ± 0.1 µM. Besides, the “fold more cytotoxic for leukemia (HL-60) than for breast cancer (MCF-7) cells” value in data set [2] (MCF-7 vs HL-60) was “over 100 fold”. In addition, the “HUVEC/HL-60 IC50 ratio” value in data set [2] is listed as “over 100”.
In the case of `COc1cccc(C[n+]2cn(Cc3ccccc3)c(C)c2C)c1` [1c[PF6], 1-Benzyl-3-(3-methoxybenzyl)-4,5-dimethylimidazolium hexafluorophosphate], the IC50 in data set [1] (setting [6]) was 69.9 ± 0.2 µM; in data set [2] (Homo sapiens, HL-60, 48 h), 19.9 ± 0.2 µM.
For the compound `COc1cccc(C[n+]2cn(Cc3ccccc3)c(-c3ccccc3)c2-c2ccccc2)c1` [6c[PF6], 1-Benzyl-3-(3-methoxybenzyl)-4,5-diphenylimidazolium hexafluorophosphate], the IC50 came to 8.8 ± 0.1 µM in data set [3]; 7.9 ± 0.3 µM in data set [1] (setting [6]); 1.2 ± 0.2 µM in data set [2] (Homo sapiens, HL-60, 48 h).
Compound `Cc1c(C)n(Cc2ccccc2)c(=S)n1Cc1ccccc1` [7a, 1,3-Dibenzyl-4,5-dimethylimidazole-2-thione] had a melting point of 183 to 185 °C. In data set [1] (setting [6]), this compound came in with an IC50 above 100 µM. In addition, the IC50 in data set [2] (Homo sapiens, HL-60, 48 h) was above 100 µM.
With `Cc1c(C)[n+](Cc2ccccc2)cn1Cc1ccccc1` [1a, 1,3-Dibenzyl-4,5-dimethylimidazolium chloride], the IC50 in data set [5] was above 10 µM; in data set [3], above 100 µM; in data set [1] (setting [6]) it was above 100 µM; in data set [2] (Homo sapiens, HL-60, 48 h), 32.3 ± 3.5 µM.
As to `COc1cccc(Cn2c(C)c(C)n(Cc3ccccc3)c2=S)c1` [7c, 1-(3′-Methoxybenzyl)-3-benzyl-4,5-dimethylimidazole-2-thione], the IC50 is above 100 µM in data set [1] (setting [6]) and 20.2 ± 1.9 µM in data set [2] (Homo sapiens, HL-60, 48 h).
Consider `COc1cccc(Cn2c(-c3ccccc3)c(-c3ccccc3)n(Cc3ccccc3)c2=S)c1` [8c, 1-(3′-Methoxybenzyl)-3-benzyl-4,5-diphenylimidazole-2-thione], for which the melting point was in the range of 52 to 55 °C. Besides, the IC50 in data set [1] (setting [6]) was above 100 µM. The same compound returned an IC50 in data set [2] (Homo sapiens, HL-60, 48 h) of 55 ± 5 µM.
